This is an account of results in patent publication US10004701B2, “Methods and compositions for treating infection” (UNIVERSITY OF ROCHESTER, priority 2012, dated 2018).

The subject of assay [1] is S. aureus strain UAMS-1 static biofilms. Briefly: AK assay of established biofilms (with plating). It is filed as cell-based, Staphylococcus aureus. Particulars: 10×MIC; for decrease in biofilm-associated bacteria / biofilm cell viability (plating): S. aureus UAMS-1 48-h biofilm, vs untreated.
Assay [2] deals with S. aureus SCV strain UAMS-1112. Briefly: Small-colony variant AK assay (with plating). The class given is cell-based, Staphylococcus aureus. How it is done:
Thirty-six-hour cultures of S. aureus strain UAMS-1112 were used to inoculate (1:100 dilution) 100 ml of fresh MH medium and grown at 37° C. on a rotary shaker at 225 rpm to an optical density (600 nm) of 0.1 to 0.2, corresponding to ˜1×10^6 CFU ml^−1. Cells were pelleted by centrifugation and resuspended in 2 ml of fresh MH medium. Ninety-eight microliters of MH medium containing 5×10^6 bacteria and 2 μl of the indicated antibiotic were added to individual wells of a white-walled, 96-well microtiter plate. Well components were mixed by pipetting and incubated at 37° C. for 3 h. The plate was equilibrated to room temperature for 30 min. Next, 100 μl of ToxiLight AK reagent was added to each well, followed by incubation at room temperature for 30 min, and luminescence was measured using a SpectraMax M5 plate reader.
SCV are slow-growing populations of bacterial species that have been hypothesized to cause latent or recurrent infections and are tolerant of standard antibiotic treatment regimens. Based on the aberrant SCV growth characteristics, typical growth-based HTS assays would be difficult to employ. Accordingly, the ability of the AK assay to identify agents that kill S. aureus SCV strain UAMS-1112 was tested. […].

The subject of assay [3] is Enterococcus faecium 824-05. As to the kind of experiment: MIC testing. It is filed as cell-based. Particulars: Enterococcus faecium 824-05.
For assay [4], the system named is Staphylococcus aureus. As to the kind of experiment: MIC testing. The class given is cell-based.
Assay [5] deals with Klebsiella pneumoniae cKP1. Briefly: MIC testing. The class given is cell-based. The following applies: Klebsiella pneumoniae cKP1.
In assay [6] the test system is Acinetobacter baumannii 98-37-09. As to the kind of experiment: MIC testing. It is filed as cell-based. The following applies: Acinetobacter baumannii 98-37-09.
The subject of assay [7] is Pseudomonas aeruginosa PA01. As to the kind of experiment: MIC testing. It is filed as cell-based.
Assay [8] has as its system Enterobacter cloacae PMD1001. As to the kind of experiment: MIC testing. The class given is cell-based.
The test system of assay [9] is Escherichia coli 8295. Briefly: MIC testing. It is filed as cell-based.
For assay [10], the system named is Pseudomonas aeruginosa PA01. Briefly: AK assay 96-well format. It is filed as cell-based.
Assay [11] concerns E. faecium. As to the kind of experiment: AK assay 384-well format, Prestwick library screening. The class given is cell-based, Enterococcus faecium.
The subject of assay [12] is S. aureus strain USA300-0114. The description is as above. Particulars: Staphylococcus aureus, USA300, 3 h; planktonic S. aureus; 50 μM final drug concentration; 384-well; cutoff for positive-scoring molecules 3-fold increase; read-out: AK-based Prestwick Library Screening Results: S. aureus (increase in extracellular AK activity). The class given is cell-based, Staphylococcus aureus.

In assay [13] the test system is K. pneumoniae. Described as above. The class given is cell-based, Klebsiella pneumoniae. Particulars: Klebsiella pneumoniae, 3 h; planktonic K. pneumoniae; 50 μM final drug concentration; 384-well; cutoff for positive-scoring molecules 3-fold increase; read-out: AK-based Prestwick Library Screening Results: K. pneumoniae (increase in extracellular AK activity).
In assay [14] the test system is A. baumannii strain 98-37-09. The description is as above. The class given is cell-based, Acinetobacter baumannii. The following applies: Acinetobacter baumannii, 983709, 3 h; planktonic A. baumannii; 50 μM final drug concentration; 384-well; cutoff for positive-scoring molecules 3-fold increase; read-out: AK-based Prestwick Library Screening Results: A. baumannii (increase in extracellular AK activity).

In assay [15] the test system is P. aeruginosa. The description is as above. Particulars: Pseudomonas aeruginosa, 3 h; planktonic P. aeruginosa; 50 μM final drug concentration; 384-well; cutoff for positive-scoring molecules 3-fold increase; read-out: AK-based Prestwick Library Screening Results: P. aeruginosa (increase in extracellular AK activity). It is filed as cell-based, Pseudomonas aeruginosa.

Assay [16] relates to E. cloacae. The assay is described as above. The following applies: Enterobacter cloacae, 3 h; planktonic E. cloacae; 50 μM final drug concentration; 384-well; cutoff for positive-scoring molecules 3-fold increase; read-out: AK-based Prestwick Library Screening Results: E. cloacae (increase in extracellular AK activity). It is filed as cell-based, Enterobacter cloacae.
The test system of assay [17] is E. coli. Described as above. It is filed as cell-based, Escherichia coli. The following applies: Escherichia coli, 3 h; planktonic E. coli; 50 μM final drug concentration; 384-well; cutoff for positive-scoring molecules 3-fold increase; read-out: AK-based Prestwick Library Screening Results: E. coli (increase in extracellular AK activity).
The subject of assay [18] is E. coli and each of the ESKAPE pathogens. As to the kind of experiment: AK-based Prestwick library screening, summary across organisms. The following applies: 50 μM, cutoff 3-fold increase in AK. The class given is cell-based.
The subject of assay [19] is E. faecium strain 824-05. Briefly: Galleria mellonella model of E. faecium infection. The class given is in vivo. The following applies: larval survival 48 h postinoculation.
Assay [20] has as its system Klebsiella pneumoniae cKP1. As to the kind of experiment: AK assay 96-well format. The class given is cell-based.
Assay [21] has as its system Acinetobacter baumannii 98-37-09. As to the kind of experiment: AK assay 96-well format. It is filed as cell-based. The following applies: for Fold increase in AK signal: Acinetobacter baumannii 98-37-09.
Assay [22] relates to Enterobacter cloacae PMD1001. As to the kind of experiment: AK assay 96-well format. It is filed as cell-based.
The test system of assay [23] is Escherichia coli 8295. Briefly: AK assay 96-well format. The class given is cell-based.
The subject of assay [24] is A. baumannii strain 98-37-09 static biofilms. As to the kind of experiment: AK assay of established biofilms (with plating). The class given is cell-based, Acinetobacter baumannii. The following applies: A. baumannii 98-37-09 biofilm; 10×MIC overnight; vs untreated. How it is done:
Biofilms were grown as previously described (Beenken et al. Infect. Immun. 71: 4206-4211 (2003); Musken et al. Nat. Protoc. 5: […] (2010); Tomaras et al. Microbiology 149: 3473-3483 (2003)). Briefly, P. aeruginosa and A. baumannii were cultured overnight in Luria-Bertani medium and then used to seed 96-well, flat-bottom plates. Plates were incubated at 37° C. in a humidified incubator for 48 h to allow the formation of static biofilms. Nonadherent cells were removed by aspiration and washing with sterile phosphate-buffered saline (PBS). […] Following treatment, 100 μl of each biofilm supernatant was transferred to 96-well, white-walled plates, 100 μl of ToxiLight AK reagent was added to each well, mixtures were incubated for 30 min at room temperature, and luminescence was measured using a SpectraMax M5 plate reader. Biofilm-associated bacteria were enumerated by resuspending each biofilm in fresh PBS and plating. […] Established S. aureus biofilms were washed once with PBS and then treated with a 100 μl of ToxiLight lysis buffer for 3 h, after which the amount of AK released into supernatants was measured, as described above.
Following overnight antibiotic treatment, biofilm-associated bacteria were enumerated by plating, and the corresponding supernatants were analyzed by the AK assay.

Where [25] appears, read: S. aureus UAMS-1112, 1× or 10×MIC for 3 h.

In brackets after ≈: the same amount, converted by molar mass. Like-named read-outs stand apart in the source and are kept apart here. A value given as a limit tells only on which side of the number the result lay.

A word on the MIC: it is the least concentration at which growth counts as inhibited.

As to `O=C(O)c1cn(C2CC2)c2cc(N3CCNCC3)c(F)cc2c1=O` [Ciprofloxacin, ciprofloxacin], the “decrease in biofilm-associated bacteria / biofilm cell viability (plating)” value in assay [1] amounted to 0.7 log. In addition, in assay [2] (setting [25]), the “decrease in SCV viability (plating)” value is given as “no effect” and the “increase in AK signal compared to mock-treated cells” value is on record as “no change”.

For the molecule `CC[C@H]1OC(=O)[C@H](C)[C@@H](O[C@H]2C[C@@](C)(OC)[C@@H](O)[C@H](C)O2)[C@H](C)[C@@H](O[C@@H]2O[C@H](C)C[C@H](N(C)C)[C@H]2O)[C@](C)(O)C[C@@H](C)C(=O)[C@H](C)[C@@H](O)[C@]1(C)O` [Erythromycin, erythromycin], the MIC in assay [3] (82405, read-out: MIC) is greater than 256 µg/mL; in assay [4] (Staphylococcus aureus), 2 µg/mL (≈ 2.73 µM); in assay [4] (Staphylococcus aureus USA300-0114, read-out: MIC) it was 64 µg/mL (≈ 87.2 µM); in assay [5] (read-out: MIC) it was greater than 256 µg/mL; in [6] (983709, read-out: MIC), 16 µg/mL (≈ 21.8 µM); in assay [7] (read-out: MIC), 32 µg/mL (≈ 43.6 µM). The MIC in assay [8] and in [9] was 256 µg/mL (≈ 349 µM) in each case. The “Fold increase in AK signal” value is 3 fold in assay [10] (treatment 0.5×MIC) and 1 fold in [10] (treatment 1.0×MIC). Besides, the fold induction at 50 µM came to 1 in [11] (Enterococcus faecium, 3 h, planktonic E. faecium, 50 μM final drug concentration, 384-well, cutoff for positive-scoring molecules 3-fold increase, read-out: AK-based Prestwick Library Screening Results: E. faecium (increase in extracellular AK activity)); 8.2 in assay [12]; 1 in assay [13]; 1.5 in [14]; 0.7 in assay [15]; 1.6 in [16]. The fold induction at 50 µM in assay [17] was determined as 1. Further, the “activity in AK Prestwick screen, all species tested” value in [18] is “not identified as being active”.

Consider `CC/C(=C(\c1ccccc1)c1ccc(OCCN(C)C)cc1)c1ccccc1` [Tamoxifen, tamoxifen], for which the MIC in assay [3] (82405, read-out: MIC) came to 8 µg/mL (≈ 21.5 µM). For the same molecule, the “activity in AK Prestwick screen” value in [11] (E. faecium, 50 μM, cutoff 3-fold increase in AK) is given as “identified”. Also, the “higher survival than vehicle-treated controls” value in assay [19] (80 mg kg-1 at 2 h and 24 h) came to 4.2 fold; in assay [19] (160 mg kg-1 at 2 h and 24 h) it was 7 fold.

As for `CC(C)(C)c1ccc(C(O)CCCN2CCC(C(O)(c3ccccc3)c3ccccc3)CC2)cc1` (centres unmarked) [Terfenadine], the MIC in assay [4] (Staphylococcus aureus, S. aureus UAMS-1112 (small-colony variant), read-out: MIC) amounted to 2 µg/mL (≈ 4.24 µM); in assay [6] (983709, read-out: MIC) it was 64 µg/mL (≈ 136 µM). For the same molecule, the “increase in AK release” value in assay [1] (48-h S. aureus UAMS-1 biofilms) is on record as 2.7 fold. For the same molecule, the “decrease in biofilm-associated bacteria / biofilm cell viability (plating)” value in assay [1] came to 1.1 log. Moreover, the “increase in AK signal compared to mock-treated cells” value in assay [2] (S. aureus small-colony-variant UAMS-1112, 10×MIC) is 3.3 fold.

Turning to colistin, the MIC in [3] is greater than 256 µg/mL; in assay [4] (Staphylococcus aureus RN4220) it was greater than 256 µg/mL; in [4] (Staphylococcus aureus USA300-0114) it was greater than 256 µg/mL; in assay [5], 8 µg/mL; in assay [6], 4 µg/mL; in [7] it was 4 µg/mL. In addition, the MIC in assay [8] is 2 µg/mL; in assay [9], 8 µg/mL. In addition, the “Fold increase in AK signal” value in assay [20] (treatment 0.5×MIC) came out at 34 fold; in assay [20] (treatment 1.0×MIC), 33 fold; in assay [21] (treatment 0.5×MIC), 17 fold; in [21] (treatment 1.0×MIC) it was 49 fold; in assay [10] (treatment 0.5×MIC), 5 fold; in assay [10] (treatment 1.0×MIC) it was 12 fold. Further, the “Fold increase in AK signal” value in assay [22] (treatment 0.5×MIC) amounted to 10 fold; in assay [22] (treatment 1.0×MIC) it was 32 fold; in assay [23] (treatment 0.5×MIC), 15 fold; in assay [23] (treatment 1.0×MIC), 22 fold. Moreover, the AK release entry in assay [21] (A. baumannii 98-37-09, 0.25×, 0.5×, and 1×MIC) is on record as “robustly detected”. The “decrease in biofilm-associated bacteria (plating)” value in assay [24] came to 1.8 log.
